Where two headings read alike, the source gives them in different places. Marks after values point to notes of the source that are not given here.
Experiments:
ERβ [1] = target: T1, ERβ (Homo sapiens, UniProt Q92731); test: Western blot, dose-response modulation of ERβ protein levels in T47D cells; assay type: cell-based; parameters: endogenous in cells; conditions: 24 h, relative to vehicle (DMSO) = 100%
ERβ [2] = target: T1, ERβ; parameters: endogenous in cells; method as in Power and Thompson (2003); conditions: T47D; 1 nM E2, 24 h 1 μM 4-OHT; ref Power and Thompson (2003); cited from earlier work
ERβ [3] = target: T1, ERβ; test: Western blot, dose-response modulation of ERβ protein levels in MCF7 cells; assay type: cell-based; parameters: although both cell lines express ERα and ERβ, MCF7 has a high ERα/ERβ ratio; endogenous in cells; host or cells: MCF7; conditions: 24 h, relative to vehicle (DMSO) = 100%
ERα [4] = conditions: T47D, cited from earlier work; for Effect on ERα protein levels: 24 h, 1 nM E2, 1 μM 4-OHT, ref Power and Thompson (2003)
ERβ [5] = target: T1, ERβ; parameters: although both cell lines express ERα and ERβ, MCF7 has a high ERα/ERβ ratio; endogenous in cells; host or cells: MCF7; conditions: cited from earlier work
ERβ [6] = target: T1, ERβ; test: Effect of translational inhibition (CHX) on modulation of ERβ protein levels in MCF7 cells; assay type: cell-based; parameters: although both cell lines express ERα and ERβ, MCF7 has a high ERα/ERβ ratio; endogenous in cells; host or cells: MCF7
ERα [7] = conditions: MCF7, cited from earlier work; for ERα protein levels downregulated: 48 h, 1 nM E2, 100 nM fulvestrant, 1 μM 4-OHT, ref Garner et al. (2015); for ERα protein levels downregulated to: after 6 h, 100 nM, ref Yeh et al. (2013)
ERα [8] = target: T2, ERα (Homo sapiens, UniProt P03372); test: Western blot, dose-response modulation of ERα protein levels in MCF7 cells; assay type: cell-based; parameters: although both cell lines express ERα and ERβ, MCF7 has a high ERα/ERβ ratio; endogenous in cells; host or cells: MCF7; conditions: 24 h; for Efficacy, ERα (AVG % ER remaining ± SD): relative to vehicle (DMSO) = 100%, maximal response of fitted dose-response curve
T2 sequence (P03372 1-595): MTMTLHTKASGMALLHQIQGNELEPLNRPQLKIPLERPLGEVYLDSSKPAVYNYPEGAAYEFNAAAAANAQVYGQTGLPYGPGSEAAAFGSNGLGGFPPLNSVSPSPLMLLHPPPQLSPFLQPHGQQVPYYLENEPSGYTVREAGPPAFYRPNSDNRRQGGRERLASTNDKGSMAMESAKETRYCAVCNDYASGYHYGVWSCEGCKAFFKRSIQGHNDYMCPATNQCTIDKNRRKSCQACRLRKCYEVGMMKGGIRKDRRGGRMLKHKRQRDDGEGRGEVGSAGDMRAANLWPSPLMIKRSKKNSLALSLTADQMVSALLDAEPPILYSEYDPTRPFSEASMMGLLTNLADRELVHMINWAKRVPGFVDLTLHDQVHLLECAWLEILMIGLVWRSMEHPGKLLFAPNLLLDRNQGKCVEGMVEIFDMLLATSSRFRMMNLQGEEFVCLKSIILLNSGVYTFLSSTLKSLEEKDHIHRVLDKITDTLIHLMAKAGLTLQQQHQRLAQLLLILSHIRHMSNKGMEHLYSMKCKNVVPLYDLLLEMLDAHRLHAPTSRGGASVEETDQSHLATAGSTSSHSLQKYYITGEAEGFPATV

ERα [9] = target: T2, ERα; test: Western blot, dose-response modulation of ERα protein levels in T47D cells; assay type: cell-based; parameters: endogenous in cells; conditions: 24 h; for Efficacy, ERα (AVG % ER remaining ± SD): relative to vehicle (DMSO) = 100%
ERβ [10] = target: T1, ERβ; test: Effect of translational inhibition (CHX) on modulation of ERβ protein levels in T47D cells; assay type: cell-based; parameters: endogenous in cells; conditions: 1 nM CHX, over the concentrations tested
ERα [11] = target: T2, ERα; test: Effect of translational inhibition (CHX) on modulation of ERα protein levels in MCF7 cells; assay type: cell-based; parameters: although both cell lines express ERα and ERβ, MCF7 has a high ERα/ERβ ratio; endogenous in cells; host or cells: MCF7; conditions: 1 nM CHX, over the concentrations tested
ERα [12] = target: T2, ERα; test: Effect of translational inhibition (CHX) on modulation of ERα protein levels in T47D cells; assay type: cell-based; parameters: endogenous in cells; conditions: 1 nM CHX, over the concentrations tested
[13] = MCF7, 1 nM E2, 24 h 1 μM 4-OHT, ref Power and Thompson (2003)
[14] = MCF7, 1 nM E2, 1 μM fulvestrant, ref Mishra et al. (2016)
[15] = MCF7 cells transfected with an ERβ expression vector, 10 nM, ref Peekhaus et al. (2004)
[16] = MCF7, 1 nM CHX, over the concentrations tested

T1 sequence (Q92731 whole entry): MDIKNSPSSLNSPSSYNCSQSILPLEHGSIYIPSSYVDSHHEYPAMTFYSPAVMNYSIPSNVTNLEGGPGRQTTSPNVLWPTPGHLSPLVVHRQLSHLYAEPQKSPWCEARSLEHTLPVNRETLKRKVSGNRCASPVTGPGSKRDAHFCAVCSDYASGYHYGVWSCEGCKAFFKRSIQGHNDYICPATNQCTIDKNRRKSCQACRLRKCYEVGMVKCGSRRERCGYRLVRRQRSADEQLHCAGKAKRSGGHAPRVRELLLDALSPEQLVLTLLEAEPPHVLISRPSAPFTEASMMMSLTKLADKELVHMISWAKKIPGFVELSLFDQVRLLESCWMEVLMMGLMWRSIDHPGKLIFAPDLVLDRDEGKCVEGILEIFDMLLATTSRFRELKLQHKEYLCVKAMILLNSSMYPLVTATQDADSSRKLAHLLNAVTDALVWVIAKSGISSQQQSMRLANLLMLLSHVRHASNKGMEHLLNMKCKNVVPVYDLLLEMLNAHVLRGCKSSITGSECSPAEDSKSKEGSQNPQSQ

Efficacy, ERβ (AVG % ER remaining ± SD) (ERβ [1])	Efficacy, ERβ (AVG % ER remaining ± SD) (ERβ [3])	Efficacy, ERα (AVG % ER remaining ± SD) (ERα [8])	Efficacy, ERα (AVG % ER remaining ± SD) (ERα [9])	Change in ERβ protein levels on addition of CHX (ERβ [10])	Change in ERβ protein levels on addition of CHX (ERβ [6]; [16])	SMILES	Effect on ERβ protein levels (ERβ [2])	Effect on ERα protein levels (ERα [4])	Effect on ERβ protein levels (ERβ [5]; [13])	ERα protein levels downregulated (ERα [7]) [%]	ERα protein levels downregulated to (ERα [7]) [%]	Effect on ERβ protein levels (ERβ [5]; [14])	Effect on ERβ protein levels (ERβ [5]; [15])	Change in ERα protein levels on addition of CHX (ERα [11])	Change in ERα protein levels on addition of CHX (ERα [12])	further results
58.7 ± 9.0^a %	53.3 ± 5.6^a %	–	–	–	–	C[C@]12CC[C@@H]3c4ccc(O)cc4CC[C@H]3[C@@H]1CC[C@@H]2O [E2, 17β-estradiol]	significantly upregulated	no effect	significantly upregulated	100	35	downregulated	downregulated	–	–	Effect on ERα protein levels (ERα [7]; 24 h, 1 nM E2, 1 μM 4-OHT, ref Power and Thompson (2003)): downregulated
134.1 ± 4.8^b*** %	127.1 ± 9.6^b*** %	46.8 ± 6.8^a %	64.1 ± 20.9^a %	1.2 fold	not significantly altered	C[C@]12CC[C@@H]3c4ccc(O)cc4C[C@@H](CCCCCCCCC[S+]([O-])CCCC(F)(F)C(F)(F)F)[C@H]3[C@@H]1CC[C@@H]2O (stereo partly shown) [Ful, fulvestrant]	–	–	–	100	35	upregulated	upregulated	–	–	Efficacy of downregulation of ERα protein levels (ERα [7]; 1 μM, 4 h, ref Joseph et al. (2016)): 6.4%; IC50 (ERα [7]; ref Joseph et al. (2016), read-out: Potency of downregulation of ERα protein levels): 0.39 nM; ERα protein levels downgraded (ERα [4]; concentration range 0.03–1 μM, ref Liu et al. (2016)): more than 50%

More lines, now with the values behind:

SMILES	Efficacy, ERβ (AVG % ER remaining ± SD) (ERβ [1])	Efficacy, ERβ (AVG % ER remaining ± SD) (ERβ [3])	Efficacy, ERα (AVG % ER remaining ± SD) (ERα [8])	Efficacy, ERα (AVG % ER remaining ± SD) (ERα [9])	Change in ERβ protein levels on addition of CHX (ERβ [10])	Change in ERβ protein levels on addition of CHX (ERβ [6]; [16])	Effect on ERβ protein levels (ERβ [2])	Effect on ERα protein levels (ERα [4])	Effect on ERβ protein levels (ERβ [5]; [13])	ERα protein levels downregulated (ERα [7]) [%]	ERα protein levels downregulated to (ERα [7]) [%]	Effect on ERβ protein levels (ERβ [5]; [14])	Effect on ERβ protein levels (ERβ [5]; [15])	Change in ERα protein levels on addition of CHX (ERα [11])	Change in ERα protein levels on addition of CHX (ERα [12])	further results
CC/C(=C(\c1ccc(O)cc1)c1ccc(OCCN(C)C)cc1)c1ccccc1 [4-OHT, (2)-4-hydroxytamoxifen]	151.8 ± 10.8^b*** %	142.9 ± 8.2^b*** %	–	–	–	–	significant downregulation	upregulate	significantly upregulated	–	–	–	–	–	–	Change in ERβ protein levels on addition of CHX (ERβ [6]): not significantly altered
O=C1C[C@@H](c2ccc(O)cc2)Oc2cc(O)ccc21 [Liq, liquiritigenin]	–	–	65.9 ± 10.9^a %	87.5 ± 2.5^b ^, ^c %	–	–	–	–	–	–	–	–	–	no significant difference	no significant difference	Potency, ERα (AVG IC50 in Log μg/mL ± SD) (ERα [8]): −1.9 ± 0.8^b**** Log μg/mL; Potency, ERα (AVG IC50 in Log μg/mL ± SD) (ERα [9]): −9.8 ± 1.0^a ^, ^c** Log μg/mL
Cc1c(-c2ccc(O)cc2)nn(-c2ccc(O)cc2)c1-c1ccc(OCCN2CCCCC2)cc1 [MPP, methylpiperidinopyrazole]	108.0 ± 2.1^b*** %	122.0 ± 2.3^b*** %	120.9 ± 3.0^b*** %	115.7 ± 3.4^b** %	no significant difference	1.1 fold	–	–	–	–	–	–	–	1.1 fold	no significant difference	–

From PMC10040842, “Cyclopia extracts act as selective estrogen receptor subtype downregulators in estrogen receptor positive breast cancer cell lines: Comparison to standard of care breast cancer endocrine therapies and a selective estrogen receptor agonist and antagonist” (Frontiers in Pharmacology, 2023)
